pEC50: −log10 of the molar value. Like-named read-outs stand apart in the source and are kept apart here. Starred links: 1 amine or outer side, 2 acyl side, 3 side chain; linkers in the order of their positions; H or OH if unused. Non-standard residues stand in square brackets, D forms with d. Residues, ends and D or L forms follow the SMILES beside them. Groups on a side chain read outwards from the residue. No end group written: not given here. *: point of attachment. C20 diacid = O=C(O)CCCCCCCCCCCCCCCCCCC(=O)*; C18 diacid = O=C(O)CCCCCCCCCCCCCCCCC(=O)*; αMePhe(2-F) = C[C@](N)(Cc1ccccc1F)C(=O)O; γGlu = O=C(O)[C@H](CCC(=O)[*:2])N[*:1]; αMe4Pal = C[C@](N)(Cc1ccncc1)C(=O)O; αMeY = C[C@](N)(Cc1ccc(O)cc1)C(=O)O; αMeF = C[C@](N)(Cc1ccccc1)C(=O)O; 4Pal = N[C@@H](Cc1ccncc1)C(=O)O; Aad = N[C@@H](CCCC(=O)O)C(=O)O; αMeL = CC(C)C[C@](C)(N)C(=O)O; αMeS = C[C@](N)(CO)C(=O)O; Orn = NCCC[C@H](N)C(=O)O; AEEA = NCCOCCOCC(=O)O; Aib = CC(C)(N)C(=O)O
Legend:
Assay type in all cases: cell-based
hGLP-1R [1] = target: T1, hGLP-1R (Homo sapiens, UniProt P43220); experiment: Functional cAMP activity in the presence of 1% HSA; conditions: read-out: cAMP Rel EC50, hGLP-1R
hGLP-1R [2] = target: T1, hGLP-1R; experiment: Functional cAMP activation in the presence of 0.1% casein (no HSA); conditions: read-out: Relative cAMP EC50, hGLP-1R;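 as to Relative cAMP EC50, hGIPR: intracellular cAMP rise after 30 min at 37 °C read by HTRF against a standard curve, scaled between buffer alone (0%) and top control ligand concentration (100%), four-parameter fit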;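 as to Relative cAMP EC50, hGLP-1R: intracellular cAMP rise after 30 min at 37 °C read by HTRF, normalized between buffer only (0%) and maximal control ligand (100%), four-parameter variable-slope fit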
hGIPR [3] = target: T2, hGIPR (Homo sapiens, UniProt P48546); experiment: Functional cAMP activity in the presence of 1% HSA; conditions: read-out: cAMP Rel EC50, hGIPR
T2 sequence (P48546 22-466): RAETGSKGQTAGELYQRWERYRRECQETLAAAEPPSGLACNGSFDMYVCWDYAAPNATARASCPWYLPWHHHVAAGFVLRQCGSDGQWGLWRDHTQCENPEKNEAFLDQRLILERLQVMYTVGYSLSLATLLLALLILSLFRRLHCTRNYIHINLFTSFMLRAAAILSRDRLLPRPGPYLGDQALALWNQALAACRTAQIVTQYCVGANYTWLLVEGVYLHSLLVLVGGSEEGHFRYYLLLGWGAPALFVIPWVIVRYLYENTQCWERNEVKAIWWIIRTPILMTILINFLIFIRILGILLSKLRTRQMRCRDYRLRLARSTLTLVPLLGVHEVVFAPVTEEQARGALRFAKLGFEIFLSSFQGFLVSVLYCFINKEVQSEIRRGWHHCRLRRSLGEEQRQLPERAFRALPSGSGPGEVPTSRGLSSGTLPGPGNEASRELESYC

hGIPR [4] = target: T2, hGIPR; experiment: Functional cAMP activation in the presence of 0.1% casein (no HSA); conditions: read-out: Relative cAMP EC50, hGIPR;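 as to Relative cAMP EC50, hGIPR: intracellular cAMP rise after 30 min at 37 °C read by HTRF against a standard curve, scaled between buffer alone (0%) and top control ligand concentration (100%), four-parameter fit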;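 as to Relative cAMP EC50, hGLP-1R: intracellular cAMP rise after 30 min at 37 °C read by HTRF, normalized between buffer only (0%) and maximal control ligand (100%), four-parameter variable-slope fit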
human GcgR = human GcgR (Homo sapiens, UniProt P47871); experiment: Functional cAMP activity in the presence of 1% HSA; conditions: read-out: cAMP Rel EC50, hGcgR
hGcgR = hGcgR (Homo sapiens, UniProt P47871); experiment: Functional cAMP activation in the presence of 0.1% casein (no HSA); conditions: read-out: Relative cAMP EC50, hGcgR;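 also: intracellular cAMP rise after 30 min at 37 °C, read by HTRF against a cAMP standard curve, scaled from buffer only (0%) to maximal control ligand response (100%)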
[5] = in the presence of 0.1% casein (no HSA), geometric mean

T1 sequence (P43220 24-463): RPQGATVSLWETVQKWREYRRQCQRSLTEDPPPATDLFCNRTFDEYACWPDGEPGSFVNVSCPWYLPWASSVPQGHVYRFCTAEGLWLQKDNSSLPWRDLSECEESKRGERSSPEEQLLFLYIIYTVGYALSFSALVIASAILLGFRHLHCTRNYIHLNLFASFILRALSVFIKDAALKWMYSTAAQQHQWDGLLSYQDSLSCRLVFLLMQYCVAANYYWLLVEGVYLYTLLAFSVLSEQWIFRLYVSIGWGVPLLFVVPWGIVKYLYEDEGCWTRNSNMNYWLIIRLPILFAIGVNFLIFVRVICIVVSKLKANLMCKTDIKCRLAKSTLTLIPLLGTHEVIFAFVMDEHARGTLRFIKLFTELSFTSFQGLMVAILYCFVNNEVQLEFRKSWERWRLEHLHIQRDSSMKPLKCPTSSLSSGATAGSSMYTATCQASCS
Chain of hGcgR (P47871 26-477): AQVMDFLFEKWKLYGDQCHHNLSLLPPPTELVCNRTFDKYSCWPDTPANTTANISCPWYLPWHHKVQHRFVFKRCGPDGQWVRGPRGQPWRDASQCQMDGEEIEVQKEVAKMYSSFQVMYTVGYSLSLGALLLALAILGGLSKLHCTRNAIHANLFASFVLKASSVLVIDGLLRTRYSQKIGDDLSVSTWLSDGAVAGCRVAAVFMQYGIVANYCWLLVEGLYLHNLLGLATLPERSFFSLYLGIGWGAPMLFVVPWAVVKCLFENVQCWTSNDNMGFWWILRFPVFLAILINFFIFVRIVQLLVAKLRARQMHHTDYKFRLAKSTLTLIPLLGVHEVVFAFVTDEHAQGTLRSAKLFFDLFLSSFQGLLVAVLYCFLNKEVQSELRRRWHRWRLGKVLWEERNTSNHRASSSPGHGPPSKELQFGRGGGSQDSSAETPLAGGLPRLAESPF
Chain of human GcgR (P47871 26-477): as above

| Molecule | pEC50 (hGLP-1R [1]) | pEC50 (hGLP-1R [2]; [5]) | pEC50 (hGIPR [3]) | pEC50 (hGIPR [4]; [5]) | pEC50 (human GcgR) | pEC50 (hGcgR; [5]) | pEC50 (hGLP-1R [2]) | pEC50 (hGIPR [4]) | pEC50 (hGcgR) |
| --- | --- | --- | --- | --- | --- | --- | --- | --- | --- |
| H-Y[Aib]QGTFTSDFS[Orn][αMeL]LDKK([AEEA-AEEA-γGlu-C18 diacid])AQ[Aib]AFIEYLLE[Aib]GPSSGAPPPEGS-NH2 [Example 194] | 6.16 | 8.33 | 7.71 | 9.67 | 6.09 | 8.36 | – | – | – |
| H-Y[Aib]QGT[αMePhe(2-F)]TSD[4Pal][αMeS]I[αMeL]LD[Orn]K([γGlu-γGlu-C18 diacid])AA[Aib]EFI[dE][αMeY]LIEGGPSSGAPPPSGGGE-NH2 [Example 747] | 7.69 | – | 9.19 | – | 6.77 | – | 9.64 | 11.02 | 8.77 |
| H-Y[Aib]QGTFTSDFSK[αMeL]LDKK([AEEA-γGlu-C20 diacid])AQ[Aib]AFIEYLLEGGPSSGAPPP[γGlu]EG-NH2 [Example 52] | 5.90 | 8.29 | 6.95 | 9.35 | 5.76 | 8.23 | – | – | – |
| H-Y[Aib]QGTFTSD[4Pal]SQ[αMeL]LD[Orn]K([AEEA-γGlu-C18 diacid])AQ[αMe4Pal]AFI[dE][αMeY]LIEGGPSSGAPPPSGSEE-NH2 [Example 1042] | 6.19 | 7.99 | 7.07 | 8.89 | 5.72 | 7.56 | – | – | – |
| H-Y[Aib]QGTFTSD[4Pal]SQ[αMeL]LD[Orn]K([AEEA-γGlu-C18 diacid])AQ[αMe4Pal]AFIE[αMeY]LIE[Aib]GPSSGAPPPSGSEE-NH2 [Example 1108] | 7.12 | 9.12 | 8.28 | 10.29 | 6.33 | 8.30 | – | – | – |
| Y[Aib]QGT[αMePhe(2-F)]TSD[4Pal][αMeS]I[αMeL]LD[Orn]K([AEEA-γGlu-C18 diacid])AQ[αMe4Pal]EFI[dE][αMeY]LIEGGPPS[Aib]EPPPEGE-NH2 [Example 1190] | 7.11 | 9.12 | 9.02 | 10.96 | 6.72 | 8.77 | – | – | – |
| H-Y[Aib]QGTFTSDYSK[αMeL]LDKK([AEEA-γGlu-C20 diacid])AQQAFVQWLIE[dA]GPSSGEPPPSEG-NH2 [Example 342] | 7.21 | 9.38 | 7.15 | 9.46 | 5.67 | 7.99 | – | – | – |
| H-Y[Aib]QGT[αMePhe(2-F)]TSD[4Pal][αMeS]I[αMeL]LD[Orn]K([AEEA-γGlu-C18 diacid])AQ[αMe4Pal]EFI[dE][αMeY]LIEGGPSSGEPPPGGE-NH2 [Example 1145] | 7.41 | 9.50 | 9.07 | 11.16 | 6.83 | 8.97 | – | – | – |
| CC[C@H](C)[C@H](NC(=O)[C@H](CC(C)C)NC(=O)[C@H](Cc1ccc(O)cc1)NC(=O)[C@H](CCC(=O)O)NC(=O)[C@@H](NC(=O)[C@H](Cc1ccccc1)NC(=O)[C@H](C)NC(=O)[C@](C)(Cc1ccncc1)NC(=O)[C@H](CCC(N)=O)NC(=O)[C@H](C)NC(=O)[C@H](CCCCNC(=O)COCCOCCNC(=O)CC[C@H](NC(=O)CCCCCCCCCCCCCCCCC(=O)O)C(=O)O)NC(=O)[C@H](CCCCN)NC(=O)[C@H](CC(=O)O)NC(=O)[C@H](CC(C)C)NC(=O)[C@](C)(CC(C)C)NC(=O)[C@H](CCC(N)=O)NC(=O)[C@H](CO)NC(=O)[C@H](Cc1ccncc1)NC(=O)[C@H](CC(=O)O)NC(=O)[C@H](CO)NC(=O)[C@@H](NC(=O)[C@H](Cc1ccccc1)NC(=O)[C@@H](NC(=O)CNC(=O)[C@H](CCC(N)=O)NC(=O)C(C)(C)NC(=O)[C@@H](N)Cc1ccc(O)cc1)[C@@H](C)O)[C@@H](C)O)[C@@H](C)CC)C(=O)N[C@@H](C)C(=O)NCC(=O)NCC(=O)N1CCC[C@H]1C(=O)N[C@@H](CO)C(=O)N[C@@H](CO)C(=O)NCC(=O)N[C@@H](C)C(=O)N1CCC[C@H]1C(=O)N1CCC[C@H]1C(=O)N1CCC[C@H]1C(=O)N[C@@H](CO)C(=O)NCC(=O)N[C@@H](CO)C(N)=O [Example 827] | 7.27 | 9.23 | 7.71 | 9.92 | 6.37 | 8.37 | – | – | – |
| H-Y[Aib]QGTFTSD[4Pal]S[Orn][αMeL]LDKK([γGlu-γGlu-C18 diacid])AQ[αMe4Pal]AFIE[αMeY]LIAGGPSSGAPPPEGS-NH2 [Example 1015] | 7.03 | 9.00 | 8.04 | 10.09 | 6.45 | 8.45 | – | – | – |
| H-Y[Aib]QGTFTSDFS[Orn][αMeL]LDKK([γGlu-γGlu-C18 diacid])AQ[Aib]AFIEYLLEGGPSSG[Aib]PPPGGS-NH2 [Example 771] | 6.18 | – | 7.35 | – | 6.02 | – | 8.36 | 9.63 | 8.30 |
| H-Y[Aib]QGT[αMePhe(2-F)]TSD[4Pal]SILLDKK([γGlu-γGlu-C18 diacid])AQ[Aib]AFIEWLQEGGPSSGEPPPSGTEE-NH2 [Example 579] | 7.17 | – | 8.42 | – | 6.17 | – | 9.60 | 10.77 | 8.63 |
| Y[Aib]QGT[αMeF]TSD[4Pal][αMeS]I[αMeL]LD[Orn]K([AEEA-γGlu-C18 diacid])AQ[αMe4Pal]EFI[dE][αMeY]LIEGGPSSGEPPPSGE-NH2 [Example 1165] | 7.06 | 9.20 | 8.87 | 10.92 | 6.45 | 8.57 | – | – | – |
| H-Y[Aib]QGT[αMePhe(2-F)]TSD[4Pal]SI[αMeL]LD[Orn]K([γGlu-γGlu-C18 diacid])AQ[αMe4Pal][Orn]FI[dE][αMeY]LIEGGPSSGEPPPEGTE-NH2 [Example 687] | 7.67 | – | 9.23 | – | 6.80 | – | 9.56 | 11.04 | 8.62 |
| CC[C@H](C)[C@H](NC(=O)[C@H](CO)NC(=O)[C@H](Cc1ccc(O)cc1)NC(=O)[C@H](CC(=O)O)NC(=O)[C@H](CO)NC(=O)[C@@H](NC(=O)[C@](C)(Cc1ccccc1F)NC(=O)[C@@H](NC(=O)CNC(=O)[C@H](CCC(N)=O)NC(=O)C(C)(C)NC(=O)[C@@H](N)Cc1ccc(O)cc1)[C@@H](C)O)[C@@H](C)O)C(=O)N[C@@H](CC(C)C)C(=O)N[C@@H](CC(C)C)C(=O)N[C@@H](CC(=O)O)C(=O)N[C@@H](CCCCN)C(=O)N[C@@H](CCCCNC(=O)CC[C@H](NC(=O)CC[C@H](NC(=O)CCCCCCCCCCCCCCCCC(=O)O)C(=O)O)C(=O)O)C(=O)N[C@@H](C)C(=O)N[C@@H](CCC(N)=O)C(=O)NC(C)(C)C(=O)N[C@@H](CCCC(=O)O)C(=O)N[C@@H](Cc1ccccc1)C(=O)N[C@H](C(=O)N[C@@H](CCC(=O)O)C(=O)N[C@@H](Cc1ccc(O)cc1)C(=O)N[C@@H](CC(C)C)C(=O)N[C@@H](CCC(=O)O)C(=O)N[C@@H](CCC(=O)O)C(=O)NCC(=O)NCC(=O)N1CCC[C@H]1C(=O)N[C@@H](CO)C(=O)N[C@@H](CO)C(=O)NCC(=O)N[C@@H](C)C(=O)N1CCC[C@H]1C(=O)N1CCC[C@H]1C(=O)N1CCC[C@H]1C(=O)N[C@@H](CO)C(N)=O)[C@@H](C)CC [Example 415] (H-Y[Aib]QGT[αMePhe(2-F)]TSDYSILLDKK([γGlu-γGlu-C18 diacid])AQ[Aib][Aad]FIEYLEEGGPSSGAPPPS-NH2) | 7.28 | – | 7.54 | – | 5.96 | – | 9.42 | 10.30 | 8.06 |
| H-Y[Aib]QGTFTSDYSK[αMeL]LDKK([AEEA-γGlu-C20 diacid])AQQAFIEYLIAGGPSSGEPPPSGD-NH2 [Example 337] | 6.57 | 9.16 | 7.00 | 9.48 | 5.53 | 8.23 | – | – | – |
